Key:
p-ERK of PC-9 cells = assay: p-ERK HTRF assay in PC-9 cells; type: cell-based; conditions: Homo sapiens, PC-9, 1 h, PC-9 lung cancer cells, 1 hour treatment, read-out: IC50, inhibitory activity on p-ERK of PC-9 cells
Procedure: IC50 Values of Compounds Determined by p-ERK HTRF Assay in PC-9 Cells
Experimental objective: an inhibitory effect of the test compounds on the phosphorylation of PC-9ERK of lung cancer cells at a cellular level was evaluated by detecting the phosphorylation of ERK.
• PRMI 1640 medium (Invitrogen-11875093) • 0.25% pancreatin (Invitrogen-25200056) • Phosphoric acid buffer salt solution (PBS, pH 7.4) (Invitrogen-10010023) • Double-antibody (PS) (Invitrogen-15140122) • Fetal bovine serum (FBS) (Gibco-10091148) • Trypan blue (Gibco-15250061) • 10-cm culture dish (Corning-430167) • 10-mL pipette (Costar-4488) • Pipettor (Sartorius-17009031) • 15-mL centrifuge tube (Corning-430052) • 50-mL centrifuge tube (Corning-430829) • Cryotube (Thermo-377267) • 1.5-mL EP tube (Axygen-MCT-150-C-S) • Cell incubator (Thermo-371) • Microscope (Olympus-CKX41) • Centrifuge (Flying Pigeon-TDL-80-2B) • Cell counter (Countstar-IC-1000) • Envision (Perkin Elmer) • Spark 10M (TECAN) • Phospho-ERK1/2 (Thr202/Tyr204) Experimental kit (Cisbio, Cat. No. 64AERPEG) • PC-9 cells: RPMI1640+10% FBS+1% PS
• 1) PBS, 0.25% pancreatin, and a cell culture medium were placed in a water-bath kettle at 37° C. for preheating; • 2) cells were observed under a microscope, a fusion degree was evaluated, and no bacterial and fungi pollution was confirmed; • 3) a culture solution was removed, the cells were washed with 5 mL of PBS and digested with 2 mL of the 0.25% trypsin, the digestion was terminated with 10 mL of the fresh cell culture medium, a culture dish was rinsed, and the cells were transferred to a 15-mL centrifuge tube; • 4) the collected cells were centrifuged at 1,000 rpm for 5 minutes; • 5) after the centrifugation, the supernatant was discarded, the cells were resuspended in 5 mL of the cell culture medium, 20 μL of the resuspended cells were aspirated, and the number and viability of viable cells were recorded; • 6) the cell culture medium was used and the cell density was adjusted (PC-9:10,000 cells/well, and 45 μL per well); • 7) in a 384-well plate, 45 μL of a cell suspension per well was transferred according to an experimental design figure; and • 8) the cells were incubated overnight at 37° C. and 5% CO2.
• 1) The compounds were diluted from the stock concentration to 10 mM with 100% DMSO (Trametinib was diluted to 1 mM), then 3-fold diluted into 10 points (5 μL of the diluted compounds with the concentration of 10 mM were transferred to 10 μL of the DMSO in an LDV plate), and centrifuged at 1,000 rpm/min for 1 minute; • 2) 5 μL of the diluted compounds of step 1) were transferred to an inter plate 1 containing 45 μL of the cell culture medium (the compounds were diluted from 1,000× to 100×); • 3) 5 μL of the diluted compounds of step 2) were transferred to an inter plate 2 containing 45 μL of the cell culture medium (the compounds were diluted from 100× to 10×); • 4) 5 μL of the compounds were pipetted from the inter plate 2 into a cell culture plate (the compounds were diluted from 10 folds to 1 fold), the final concentrations of the test compounds were 10,000 nM, 3333.33 nM, 1111.11 nM, 370.37 nM, 123.46 nM, 41.15 nM, 13.72 nM, 4.57 nM, 1.52 nM, and […], the solution was centrifuged at 1,000 rpm/min for 1 minute, and the final content of the DMSO was 0.1%; and • 5) the cells were treated in an incubator at 37° C. for 1 hour. […]

KRAS-G12C/SOS1 = KRAS-G12C/SOS1 (Homo sapiens (Human), UniProt Q07889); assay: Detection of inhibitory effects of compounds on KRAS-G12C/SOS1 (KRASG12C/SOS binding kit, HTRF); conditions: Em665/620, read-out: IC50, inhibitory activity on interaction of KRAS-G12C/SOS1
Sequence of KRAS-G12C/SOS1 (Q07889 whole entry, stated change not applied): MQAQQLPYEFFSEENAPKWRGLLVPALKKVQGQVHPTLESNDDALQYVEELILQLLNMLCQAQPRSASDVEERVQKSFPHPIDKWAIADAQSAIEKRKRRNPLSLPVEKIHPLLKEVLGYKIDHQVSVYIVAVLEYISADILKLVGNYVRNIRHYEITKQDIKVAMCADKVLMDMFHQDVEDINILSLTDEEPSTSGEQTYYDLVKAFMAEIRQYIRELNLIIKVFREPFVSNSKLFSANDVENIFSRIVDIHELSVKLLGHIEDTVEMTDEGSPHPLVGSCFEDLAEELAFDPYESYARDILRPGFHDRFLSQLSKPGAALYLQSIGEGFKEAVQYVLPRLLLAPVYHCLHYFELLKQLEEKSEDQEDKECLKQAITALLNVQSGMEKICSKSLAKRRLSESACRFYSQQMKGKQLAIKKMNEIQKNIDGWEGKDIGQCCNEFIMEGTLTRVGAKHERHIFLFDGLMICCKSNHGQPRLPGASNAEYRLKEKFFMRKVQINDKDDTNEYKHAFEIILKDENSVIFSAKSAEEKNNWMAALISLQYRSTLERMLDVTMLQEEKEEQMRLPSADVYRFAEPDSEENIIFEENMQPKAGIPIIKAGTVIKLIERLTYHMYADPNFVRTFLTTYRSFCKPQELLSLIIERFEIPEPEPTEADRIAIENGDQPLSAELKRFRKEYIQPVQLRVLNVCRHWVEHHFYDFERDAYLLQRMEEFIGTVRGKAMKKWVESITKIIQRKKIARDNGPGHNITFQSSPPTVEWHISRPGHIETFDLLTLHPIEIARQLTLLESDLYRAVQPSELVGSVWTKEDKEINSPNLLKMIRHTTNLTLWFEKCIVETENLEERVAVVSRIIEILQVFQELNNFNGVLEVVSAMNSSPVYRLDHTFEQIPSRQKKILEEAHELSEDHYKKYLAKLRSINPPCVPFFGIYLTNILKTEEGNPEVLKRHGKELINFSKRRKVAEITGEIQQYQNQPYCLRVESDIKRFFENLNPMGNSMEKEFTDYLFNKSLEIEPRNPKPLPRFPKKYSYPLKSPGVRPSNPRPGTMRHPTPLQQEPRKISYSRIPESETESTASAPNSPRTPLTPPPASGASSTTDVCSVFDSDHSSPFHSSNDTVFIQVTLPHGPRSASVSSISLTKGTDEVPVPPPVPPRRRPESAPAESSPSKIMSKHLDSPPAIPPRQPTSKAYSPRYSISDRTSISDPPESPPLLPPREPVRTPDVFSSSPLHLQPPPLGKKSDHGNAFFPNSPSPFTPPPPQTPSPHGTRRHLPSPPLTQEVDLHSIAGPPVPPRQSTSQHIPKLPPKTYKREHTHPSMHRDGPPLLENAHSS
Description: Experimental objective: The inhibitory effects of the tested compounds on KRAS-G12C/SOS1 were detected. IC50 was used to characterize the inhibitory ability of the compounds on the KRAS-G12C/SOS1. The lower IC50 value indicated the stronger inhibitory ability. BI-3406 was used as a positive control compound.
Experimental reagents: KRASG12C/SOS binding kit (Cisbio, cat. 63ADK000CB16PEG); DMSO (Sigma, cat. D8418-1L); and 384-well white plate (PerkinElmer, cat. 6007290)
• 1. Preparation of compounds: the test compounds were dissolved in 100% DMSO to obtain 10 mM stock solutions and the stock solutions were stored in a refrigerator in the dark. • 2. Kinase reaction process:
Preparation of compounds: the test compounds had the concentration of 5,000 nM and diluted in a 384-well plate into a 100% DMSO solution at the 200-fold final concentration, and the compounds were diluted 3-fold with 10 concentrations. 50 nL of the compounds at the 200-fold final concentration were transferred to the plate of interest, the 384-well plate, using a dispenser Echo 550. 50 nL of 100% DMSO was added to each negative control well and positive control well.
A Tag1-SOS1 solution at the 4-fold final concentration was prepared using a diluent buffer.
2.5 μL of the Tag1-SOS1 solution at the 4-fold final concentration was added to the 384-well plate.
A Tag2-KRAS-G12C solution at the 4-fold final concentration was prepared using the diluent buffer.
2.5 μL of the Tag2-KRAS-G12C solution at the 4-fold final concentration was respectively added into compound wells and the positive control wells; and 2.5 μL of the diluent buffer was added to the negative control wells.
The 384-well plate was centrifuged at 1,000 rpm for 30 seconds, shaken and mixed uniformly, and incubated at room temperature for 15 minutes.
An Anti-Tag1-TB3+ solution at the 1-fold final concentration and an Anti-Tag2-XL665 solution at the 1-fold final concentration were prepared using a detection buffer, the two solutions were mixed uniformly to obtain a Mix solution, and 5 μL of the Mix solution was added into each well.
The 384-well plate was centrifuged at 1,000 rpm for 30 seconds, shaken and mixed uniformly, and incubated at 4° C. for 120 minutes.
Em665/620 was read using an Envision microplate reader.
Inhibition %=(Max signal−Compound signal)/(Max signal−Min signal)×100 Calculation formula • wherein the Min signal was the mean value of the negative control wells, and the Max signal was the mean value of the positive control wells.
A dose-response curve was fitted using the log value of the concentration as an X axis and the percentage of the inhibitory rate as a Y axis by using the log(inhibitor) vs. response-variable slope of an analytical software GraphPadPrism5, thereby obtaining the IC50 value of each compound on an enzyme activity.

| Structure (SMILES) | IC50 (p-ERK of PC-9 cells) | IC50 (KRAS-G12C/SOS1) |
| --- | --- | --- |
| C[C@@H](Nc1ccnc2cnc(C3(O)CCN(C(=O)[C@@H]4CNCCO4)CC3)cc12)c1cccc(C(F)F)c1F [Compound B-137] | > 1 µM | ≤ 0.1 µM |
| CC(=O)N1C2CCC1CC(O)(c1cc3c(N[C@H](C)c4cccc(C(F)F)c4F)ccnc3c(C)n1)C2 (stereo partly drawn) [Compound B-69] | > 1 µM | ≤ 0.1 µM |
| C[C@@H](Nc1ccnc2cnc(C3(O)CCS(=O)(=O)CC3)cc12)c1cccc(C(F)F)c1F [Compound B-91] | 0.3 to 1 µM | ≤ 0.1 µM |
| CC(=O)N1CCN(c2cc3c(N[C@H](C)c4cccc(C(F)F)c4F)ccnc3cn2)C(=O)C1 [Compound B-53] | 0.3 to 1 µM | ≤ 0.1 µM |
| COc1nc(C2(O)CCN(C(=O)[C@H](C)O)CC2)cc2c(N[C@H](C)c3cccc(C(F)F)c3F)ccnc12 [Compound B-174] | 0.3 to 1 µM | 0.1 to 0.5 µM |
| C[C@@H](Nc1ccnc2cnc(C3(O)CCN(C(=O)C4CC4)CC3)cc12)c1cccc(C(F)F)c1F [Compound B-128] | ≤ 0.3 µM | ≤ 0.1 µM |
| COC1(c2cc3c(N[C@H](C)c4cccc(C(F)F)c4F)ccnc3cn2)CCOCC1 [Compound B-104] | 0.3 to 1 µM | ≤ 0.1 µM |
| C[C@@H](Nc1ccnc2cnc(C3(O)CCN(C(=O)CN4CC[C@@H](O)C4)CC3)cc12)c1cccc(C(F)F)c1F [Compound B-150] | > 1 µM | ≤ 0.1 µM |
| CC(=O)N1C2CCC1CC(c1cc3c(N[C@H](C)c4cccc(C(F)F)c4F)ccnc3c(C)n1)C2 (stereo partly drawn) [Compound B-67] | 0.3 to 1 µM | ≤ 0.1 µM |
| Cc1nc(C2(O)CCN(C(=O)[C@H](C)O)CC2)cc2c(N[C@H](C)c3cccc(C(F)F)c3F)ccnc12 [Compound B-176] | 0.3 to 1 µM | ≤ 0.1 µM |
| CC(=O)N1CCC(c2cc3c(N[C@H](C)c4cccc(C(F)F)c4F)ccnc3cn2)CC1 [Compound B-4] | ≤ 0.3 µM | ≤ 0.1 µM |
| C[C@@H](Nc1ccnc2cnc(C3(O)CCN(C(=O)N4CC[C@@H](O)C4)CC3)cc12)c1cccc(C(F)F)c1F [Compound B-162] | 0.3 to 1 µM | ≤ 0.1 µM |
| C[C@@H](Nc1ccnc2cnc(C3(O)CCC(O)CC3)cc12)c1cccc(C(C)(F)F)c1F (single isomer, unassigned) [Compound B-87-P1] | > 1 µM | 0.1 to 0.5 µM |
| C[C@@H](Nc1c(F)cnc2cnc(C3(O)CCN(C(=O)CO)CC3)cc12)c1cccc(C(F)F)c1F [Compound B-123] | ≤ 0.3 µM | ≤ 0.1 µM |
| C[C@@H](Nc1ccnc2cnc(N3CCN(C)C(=O)C3)cc12)c1cccc(C(F)F)c1F [Compound B-41] | ≤ 0.3 µM | ≤ 0.1 µM |
| C[C@@H](Nc1ccnc2cnc(N3CCC(O)(CO)CC3)cc12)c1cccc(C(F)F)c1F [Compound B-74] | ≤ 0.3 µM | ≤ 0.1 µM |
| C[C@@H](Nc1ccnc2cnc(N3CCn4nccc4C3)cc12)c1cccc(C(F)F)c1F [Compound B-28] | 0.3 to 1 µM |  |
| C[C@@H](O)C(=O)N1CCC(O)(c2cc3c(N[C@H](C)c4cccc(C(F)F)c4F)ccnc3cn2)CC1 [Compound B-120] | ≤ 0.3 µM |  |
| C[C@@H](Nc1ccnc2cnc(C3(O)CCN(C(=O)C[C@@H]4CNCCO4)CC3)cc12)c1cccc(C(F)F)c1F [Compound B-142] | > 1 µM |  |
| C[C@@H](Nc1ccnc2cnc(N3CCN(C(=O)C4CC4)CC3)cc12)c1cccc(C(F)F)c1F [Compound B-25] | ≤ 0.3 µM |  |
| C[C@@H](Nc1ccnc2cnc(N3CCCS3(=O)=O)cc12)c1cccc(C#N)c1F [Compound B-166] | ≤ 0.3 µM |  |
| C[C@@H](Nc1ccnc2cnc(N3CCn4ccnc4C3)cc12)c1cccc(C(F)F)c1F [Compound B-29] | 0.3 to 1 µM |  |

The remaining lines, values ahead:

| IC50 (p-ERK of PC-9 cells) | IC50 (KRAS-G12C/SOS1) | Structure (SMILES) |
| --- | --- | --- |
| ≤ 0.3 µM | ≤ 0.1 µM | CC(=O)N1CCN(c2cc3c(N[C@H](C)c4cccc(C(F)F)c4F)c(F)cnc3cn2)CC1 [Compound B-111] |
| ≤ 0.3 µM | ≤ 0.1 µM | C[C@@H](Nc1ccnc2cnc(C3(O)CCN(c4ncc(C#N)cn4)CC3)cc12)c1cccc(C(F)F)c1F [Compound B-156] |
| ≤ 0.3 µM | ≤ 0.1 µM | C[C@@H](Nc1ccnc2cnc(C3(O)CCN(C(=O)Cc4ccncc4)CC3)cc12)c1cccc(C(F)F)c1F [Compound B-139] |
| ≤ 0.3 µM | ≤ 0.1 µM | C[C@@H](Nc1ccnc2cnc(C3(O)CCN(C(=O)Cc4cccnc4)CC3)cc12)c1cccc(C(F)F)c1F [Compound B-138] |
| ≤ 0.3 µM | ≤ 0.1 µM | CNC(=O)C1CCN(c2cc3c(N[C@H](C)c4cccc(C(F)F)c4F)ccnc3cn2)CC1 [Compound B-36] |
| ≤ 0.3 µM | ≤ 0.1 µM | C[C@@H]1OCC2(CCN(c3cc4c(N[C@H](C)c5cccc(C(F)F)c5F)ccnc4cn3)CC2)[C@@H]1N [Compound B-79] |
| ≤ 0.3 µM | ≤ 0.1 µM | CC(=O)N1CCN(c2cc3c(N[C@H](C)c4cccc(C(F)(F)F)c4)ccnc3cn2)CC1 [Compound B-49] |
| ≤ 0.3 µM | ≤ 0.1 µM | C[C@@H](Nc1ccnc2cnc(N3C[C@H](O)C[C@H]3CO)cc12)c1cccc(C(F)F)c1F [Compound B-78] |
| ≤ 0.3 µM | ≤ 0.1 µM | C[C@@H](Nc1ccnc2cnc(C3(O)CCN(C(=O)COC(F)F)CC3)cc12)c1cccc(C(F)F)c1F [Compound B-141] |
| ≤ 0.3 µM | ≤ 0.1 µM | COC1(c2cc3c(N[C@H](C)c4cccc(C(F)F)c4F)ccnc3cn2)CCC(O)CC1 (stereo partly drawn) [Compound B-82] |
| ≤ 0.3 µM | ≤ 0.1 µM | C[C@@H](Nc1ccnc2cnc(C3(O)CCN(C(=O)c4ccncc4)CC3)cc12)c1cccc(C(F)F)c1F [Compound B-131] |
